Measured values published in US10421759B2, “Fused bicyclic compounds for the treatment of disease” (AKARNA THERAPEUTICS, LTD., priority 2015, dated 2019).

What was measured:
[1] = molecular target: T1, FXR (Homo sapiens, UniProt Q96RI1); assay: FXR Agonist Tranactivation Assay (luciferase reporter, CV-1 cells); assay type: cell-based; conditions: at 10 μM; CV-1 cells cotransfected with pCMV6-NR1H4 (FXR), pCMV6-RXRA and pEcREX7-TK-Luc; positive control 10 uM XL-335; 20 hours
T1 construct: expressed in transfected cells; host or cells: CV-1 cells, transient cotransfection
T1 sequence (Q96RI1 1-486): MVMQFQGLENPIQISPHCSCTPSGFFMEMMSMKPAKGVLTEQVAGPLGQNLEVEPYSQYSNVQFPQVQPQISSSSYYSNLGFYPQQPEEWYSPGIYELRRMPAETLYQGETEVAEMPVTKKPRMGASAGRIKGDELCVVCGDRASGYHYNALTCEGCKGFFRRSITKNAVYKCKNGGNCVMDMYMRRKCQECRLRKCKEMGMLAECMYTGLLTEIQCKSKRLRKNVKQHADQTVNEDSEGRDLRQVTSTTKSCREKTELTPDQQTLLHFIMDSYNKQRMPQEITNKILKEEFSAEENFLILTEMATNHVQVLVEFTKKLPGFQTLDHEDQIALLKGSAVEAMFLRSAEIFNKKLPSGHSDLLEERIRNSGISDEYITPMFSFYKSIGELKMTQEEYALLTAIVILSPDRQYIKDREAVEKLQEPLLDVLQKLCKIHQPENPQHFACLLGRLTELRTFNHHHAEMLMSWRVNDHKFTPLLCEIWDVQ
T1 sequence (P19793 1-462 partner): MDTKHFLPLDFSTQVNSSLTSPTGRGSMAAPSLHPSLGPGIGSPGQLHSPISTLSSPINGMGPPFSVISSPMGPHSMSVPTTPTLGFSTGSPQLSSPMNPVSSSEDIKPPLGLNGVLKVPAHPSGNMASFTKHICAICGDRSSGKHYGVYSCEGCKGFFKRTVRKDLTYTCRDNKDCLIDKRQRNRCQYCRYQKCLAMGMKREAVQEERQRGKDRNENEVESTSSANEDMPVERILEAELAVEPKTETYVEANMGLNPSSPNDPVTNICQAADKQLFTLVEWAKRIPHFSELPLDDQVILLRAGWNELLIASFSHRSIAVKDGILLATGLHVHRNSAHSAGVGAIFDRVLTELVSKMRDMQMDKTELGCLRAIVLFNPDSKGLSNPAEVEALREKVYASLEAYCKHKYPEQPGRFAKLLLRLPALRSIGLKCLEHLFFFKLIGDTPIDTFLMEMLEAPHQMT
Experimental: CV-1 cells were transiently cotransfected with pCMV6-NR1H4 (FXR), pCMV6-RXRA and reporter plasmid pEcREX7-TK-Luc. Five hours after transfection, cells were trypsinized and dispensed into 96-well plates at a concentration of 10,000 cells per well.
Compound Dilution and Addition: Starting from 3.33 mM of compound in DMSO solution a 10-point 3-fold serial dilution was made by diluting 5 μl of compound into 10 μl of DMSO. The serially diluted compound was then diluted 1:33 into DMEM. This medium was then diluted ten-fold into the culture medium with the cells (10 μl/well). All concentration points are assayed in duplicate. Plates were incubated at 37° C. for 20 hours.
Luciferase activity Readout: After the incubation 20 μl of culture medium were removed from each well and mixed with 50 μl of assay solution (Pierce™ Gaussia Luciferase Flash Assay Kit). The luminescence was measured immediately after addition of the Luc substrate with an Envision microplate reader.
Data Reduction and Analysis: The raw data was uploaded to CDD and dose-response curves were generated using the Levenberg-Marquardt algorithm integrated into CDD. As a positive control 10 uM XL-335 and as a negative control DMSO is included on each plate and used to normalize the data with the CDD built-in normalization function.

[2] = tested on: Mouse Cyp7A1; assay: Gene Expression Assay (liver qPCR after p.o. dosing); assay type: in vivo; conditions: C57BL/6 mice, 10 mg/kg p.o., liver collected 4 hours post dosing
Experimental: (§1) C57BL/6 mice (3 per group) were dosed p.o. with 10 mg/kg of compound 20. Livers were collected at 4 hours post dosing and transferred into RNALater solution immediately. Tissues were stored at 4° C. until RNA isolation. RNA was isolated, quantified and amplified; qPCR was performed using SuperScript® III Platinum® SYBR®Green One-Step qRT-PCR Kit (Cat no. 11736-051). Primers used are as listed: Mouse Cyp7A1: For: (SEQ. ID NO: 1) [NT] Rev: (SEQ. ID NO: 2) [NT]; Mouse SHP: For: (SEQ. ID NO: 3) [NT] Rev: (SEQ. ID NO: 4) [NT]; Mouse GAPDH: For: (SEQ. ID NO: 5) [NT] Rev: (SEQ. ID NO: 6) [NT]

[3] = tested on: Mouse SHP; assay: as above; assay type: in vivo; conditions: C57BL/6 mice, 10 mg/kg p.o., liver collected 4 hours post dosing
Experimental: as §1, with “1) […]” for “1) [NT]”, “2) AGTGGTGGCAAAATTCCCA;” for “2) [NT];”, “3) […]” for “3) [NT]”, “4) AGCCTCCTGTTGCAGGTGT;” for “4) [NT];”, “5) […]” for “5) [NT]”, “6) […].” for “6) [NT]”

activation compared to the positive control [1]	Avg. % mRNA induction, CYP7a [2]	Compound	Avg. % mRNA induction, SHP [3]
inactive		CC(C)OC(=O)C1=CN(C(=O)c2ccc(OCC[N+]3(C)CCOCC3)cc2)CC(C)(C)c2c(C(F)(F)F)n[nH]c21 [compound 13]	
86%	57%	CCOC(=O)C1=CN(C(=O)N2CC[N+](C)(C)CC2)CC(C)(C)c2c1[nH]c1ccccc21.[I-] [compound 20, 4-(5-(ethoxycarbonyl)-1,1-dimethyl-1,2,3,6-tetrahydroazepino[4,5-b]indole-3-carbonyl)-1,1-dimethylpiperazin-1-ium iodide]	266%
